Results on nine compounds are retold here after patent EP0238982B1, “Anticholinergic compounds, pharmaceutical compositions and method of treatment” (UNIVERSITY OF FLORIDA, priority 1986, dated 1987).

The test system of series [1] is carbachol-induced spasms of strips of ileum. The series can be described thus: Anticholinergic activity in vitro: inhibition of carbachol-induced spasms of guinea pig ileum strips. Type of series: cell-based. The following applies: for Kb: Cavia porcellus. How it is done: The anticholinergic activity of all the new compounds was investigated in vitro by studying the inhibitory action of the drugs on carbachol-induced spasms of strips of ileum from freshly killed guinea pigs. The terminal ileum from guinea pig (200-500 g) was cut into 2-3 cm strips and suspended in freshly prepared Tyrode's solution in 40 ml organ bath. The solution was aerated with 95% oxygen and 5% carbon dioxide at 37°C. A tension of 1 g was applied to the tissue, and cumulative-response curves recorded with carbachol until constant responses were obtained. A concentration of the antagonist was then added to the bath and after 10 seconds, further concentration response curves to carbachol were established. This procedure was then repeated using increasing concentrations of the antagonist. EC₅₀ was calculated for carbachol alone and for carbachol in the presence of the various antagonist concentrations. Atropine was used as standard for comparison. The PA₂ was calculated as follows: PA₂ = log ((A)/(a)-1) -log [antagonist] [formula] A = EC₅₀ or carbachol in presence of the antagonist a = EC₅₀ for carbachol alone before adding antagonist

Series [2] is described as follows: Hydrolytic rate constants in aqueous buffered solution at pH 12, 37°C (HPLC). Type of series: physicochemical. The following applies: for observed First Order Hydrolytic Rate Constants (k) K ± S.E: average of three runs ± S.E.M. How it is done: A high pressure liquid chromatography (HPLC) method was used for the determination of rate of hydrolysis of the newly prepared tropanyl esters in aqueous buffered solution at pH 12.0 and in human plasma.
(§1) The chromatographic analysis was performed in a system consisting of LCD/Milton Roy Consta Metric III metering pump and LCD UV III Monitor Detector operated at 254 nm. A 30 cm x 3.9 mm (internal diameter) reverse phase ASI/U Bondpak C18 column operated at ambient temperature was used for the analysis. The mobile phase consisted of 32% acetonitrile in 0.01 M potassium dihydrogen phosphate, 0.004 M 1-octanesulfonic acid, sodium in 0.1% acetic acid at a flow rate of 2.3 ml/min.
Sodium hydroxide and sodium dibasic phosphate were used to prepare the buffer at pH 12. The ionic strength was maintained at 0.1 M with sodium chloride.
One hundred microliters of a freshly prepared solution of the compound in methanol was added to 10 ml buffered solution, previously equilibrated to 37°C in a water bath and mixed thoroughly to make an initial concentration of 6 x 10⁻³ mol. liter⁻¹. Samples of 100 µl were injected into the column at various time intervals. […] A mobile phase of 40% acetonitrile was used to separate compounds 4 and 6 at a flow rate of 2.0 ml/min.
The previous method adapted for the hydrolysis of compounds 1, 2, 3 and 5 was used for the determination of rate of hydrolysis of compounds 4, 6 and 7. In case of compounds 4 and 6, the mobile phase is 40% acetonitrile, 0.01 M KH₂PO₄, 0.04M 1-octanesulfonic acid sodium salt and 0.1% HAC, at a flow rate 2 ml/min.

Series [3] in a line: Enzymatic hydrolytic cleavage rates in human plasma at 37°C (HPLC). Type of series: in vitro ADME. Further details: half-life: dose or concentration left out as unconfirmed. The following applies: for half-life: read-out: half lives (t 1/2) (converted). The protocol: as §1
Freshly collected plasma was used which contained about 80% plasma diluted with anticoagulant citrate phosphate dextrose solution, U.S.P.
A 100 µl volume of a freshly prepared solution of the compound in methanol was added to 10 ml plasma, previously equilibrated a 37°C in a water bath, and mixed thoroughly to result in an initial concentration of 6 x 10⁻³ mol. liter⁻¹. One ml samples of plasma were withdrawn from the test medium, mixed immediately with 3 ml ice cold acetonitrile, centrifuged and the supernatant analyzed by HPLC. The first order hydrolytic rate constant was determined by following the disappearance of the compound as function of time.

Series [4] can be described thus: Enzymatic hydrolysis in rat liver homogenate at 37°C (HPLC). Type of series: in vitro ADME, Sprague-Dawley rats. The following applies: for Rates of hydrolysis in liver homogenate K ± S.E.: 20% rat liver homogenate; for half-life / half-life at 6000 µM: rat, liver homogenate. The protocol:
The liver homogenate was prepared by the following method. Two Sprague-Dawley rats were killed by decapitation, and the livers were removed, weighed and homogenized in a tissue homogenizer in 0.11 M aqueous phosphate buffer, pH 7.4, to make 20% liver homogenate. The homogenate was centrifuged and the supernatant was used for the test. 100 l of 0.6 M solution of the ester in methanol was mixed with 10 ml of the homogenate, previously equilibrated to 37°C in a water bath, to result in an initial concentration of 6 x 10⁻³ mol/liter⁻¹. samples of 1.0 ml were withdrawn at time intervals from the medium, added immediately to 3 ml ice-cold acetonitrile, shaken vigorously, and placed in a freezer. When all samples had been collected, they were centrifuged, and each supernantant was analyzed by HPLC.

The nature of series [5]: Hydrolysis of tertiary ethyl ester (2) and formation of its degradation product (7) at pH 12, 37°C (HPLC). The series is classed as physicochemical. Set-up: dose or concentration left out as unconfirmed. The following applies: 0.01 N NaOH pH at 37°C, read-out: t 1/2, hydrolysis (disappearance) of tertiary ethyl ester (2). The protocol:
The mobile phase used for the separation of compound (2) and its degradation product, the half ester (7) consisted of 32% MeCN, 0.01M KH₂PO₄, 0.004M 1-octanesulfonic acid sodium salt and 0.1% acetic acid. At flow rate of 1.5 ml/min (2) and (7) have retention times of 9 min and 4.6 min, respectively.
100 microliters of a freshly prepared solution of compound (2) in methanol was added to 10 ml buffered solution (pH 12), previously equilibrated to 37°C in a water bath to result in an initial concentration of 6 x 10⁻³ mol liter⁻¹. Samples of 1 ml were taken at time intervals and mixed with 3 ml of acetonitrile. 100 microliters of the collected samples were injected and disappearance of (2) and formation of (7) was followed by HPLC.

A short description of series [6]: Hydrolysis of tropanyl hydrogen phenyl malonate (7) to the dibasic acid (8) at pH 12, 37°C (HPLC). The series is classed as physicochemical. Particulars: 0.01 n naoh; 0.01 N sodium hydroxide, pH 12 at 37°C; read-out: t 1/2, hydrolysis (disappearance) of (7). The protocol:
The previously described method for the determination of rate of hydrolysis of compound (2) was followed for the determination of hydrolysis of compound (7).
The disappearance of compound (7) was followed by HPLC.
The concentration of the formed dibasic acid was determined by HPLC. 15% acetonitrile, 0.01M KH₂ PO₄ and 0.1% acetic acid was used as a mobile phase. At a flow rate of 2 ml/min, the product has a retention time of 4 min.
The collected samples after determination of rate of disappearance of compound (7) were used for the determination of rate of formation of the hydrolysis product (8). 100 microliters of the sample was injected and the formation of the product was followed by HPLC.

The mark [7] stands for this setting: guinea pig ileum, against carbachol, average of two experiments (compounds 1 and 4: three), read-out: PA2 (converted).
Setting [8] is: 0.01 N sodium hydroxide at pH 12.0, at 37°C.
Where [9] appears, read: 0.01 n naoh buffer, 0.01 N sodium hydroxide at pH 12.0, at 37°C, read-out: half-life (t 1/2).
[10] abbreviates: aqueous buffer, aqueous solution pH 12, 37°C, average of three runs, read-out: t 1/2 (Min) AQUEOUS SOLN, pH 12, 37°C.
Setting [11] is: pH 7.4, 20% rat liver homogenate, pH 7.4, 37°C, read-out: t 1/2 in liver homogenate.
Setting [12] is: pH 7.4, rat liver homogenate, 37°C, average of three runs, read-out: t 1/2 (Min) RAT LIVER HOMOGENATE, 37°C.
Where [13] appears, read: 0.01 m naoh buffer, 0.01 M sodium hydroxide at pH 12 and 37°C, read-out: half lives (t 1/2).
The mark [14] stands for this setting: method of Example 19, quaternary methiodide soft esters, read-out: PA2 QUATERNARY AMINE (converted).

Structures are written as SMILES. Read-outs that look alike come from different tables or passages of the source.

As to `COC(=O)C(C(=O)OC1CC2CCC(C1)N2C)c1ccccc1` (racemic) [Compound 1, Methyl (±)-α-(carboxy)-8-methyl-8-azabicyclo[3·2·1]oct-3-yl-benzeneacetate], the Kb in series [1] (setting [7]) was 282 nM. Further, the “observed First Order Hydrolytic Rate Constants (k) K ± S.E” value in series [2] (setting [8]) was 1.43 ± 0.12 x 10^-1 min^-1. The half-life in series [2] (setting [9]) and in series [2] (setting [10]) was 4.8 min throughout.
Consider `CCOC(=O)C(C(=O)OC1CC2CCC(C1)N2C)c1ccccc1` (racemic) [Compound 2, Ethyl (±)-α-(carboxy)-8-methyl-8-azabicyclo[3·2·1]oct-3-yl-benzeneacetate], for which, in series [1] (setting [7]), the Kb was 191 nM. For the same compound, in series [3], the “kobsd HUMAN PLASMA, 37°C” value is recorded as 15.0 ± 0.3 x 10^-5 min^-1. In addition, the “observed first order hydrolytic rate constants (K) ± S.E.M.” value in series [3] is on record as 15.0 ± 0.3 x 10^-5 min^-1. The half-life in series [3] (human plasma at 37°C) was 77.4 h; in series [2] (setting [9]) it was 4.08 min; in series [2] (setting [10]) it was 4.08 min; in series [4] (setting [11]) it was 3.48 min; in series [4] (setting [12]) it was 3.48 min; in series [5], 4.19 ± 0.14 min. Further, the “observed First Order Hydrolytic Rate Constants (k) K ± S.E” value in series [2] (setting [8]) is recorded as 16.9 ± 0.15 x 10^-2 min^-1. Besides, in series [4] (pH 7.4, 37°C), the “Rates of hydrolysis in liver homogenate K ± S.E.” value (“Rates of hydrolysis” below) is 1.99 ± 0.996 x 10^-1 min^-1.
For `CC(C)OC(=O)C(C(=O)OC1CC2CCC(C1)N2C)c1ccccc1` (racemic) [Compound 3, isopropyl (±)-α-(carboxy)-8-methyl-8-azabicyclo[3·2·1]oct-3-yl-benzeneacetate], the Kb in series [1] (setting [7]) was 28.2 nM. Moreover, the “kobsd HUMAN PLASMA, 37°C” value in series [3] is 6.27 ± 0.3 x 10^-5 min^-1. The “observed first order hydrolytic rate constants (K) ± S.E.M.” value in series [3] is listed as 6.27 ± 0.3 x 10^-5 min^-1. Besides, the half-life is 186 h in series [3] (human plasma at 37°C); 22.8 min in series [2] (setting [9]); 22.8 min in series [2] (setting [10]); 7.12 min in series [4] (setting [11]); 7.12 min in series [4] (setting [12]). In series [2] (setting [8]), the “observed First Order Hydrolytic Rate Constants (k) K ± S.E” value was 30 ± 0.77 x 10^-3 min^-1. In addition, the “Rates of hydrolysis” value in series [4] (pH 7.4, 37°C) was 97.2 ± 0.76 x 10^-3 min^-1.
As to `CN1C2CCC1CC(OC(=O)C(C(=O)OC1CCCCC1)c1ccccc1)C2` (racemic) [Compound 4, cyclohexyl (±)-α-(carboxy)-8-methyl-8-azabicyclo-[3.2.1]oct-3-yl-benzeneacetate], the Kb in series [1] (setting [7]) is 257 nM. Also, the “kobsd HUMAN PLASMA, 37°C” value in series [3] was 4.44 ± 0.4 x 10^-5 min^-1. The “observed first order hydrolytic rate constants (K) ± S.E.M.” value in series [3] is listed as 4.44 ± 0.4 x 10^-5 min^-1. The half-life in series [3] (human plasma at 37°C) was 270 h; in series [2] (setting [13]), 182 min; in series [2] (setting [10]), 182 min; in series [4] (setting [11]) it was 18.7 min; in series [4] (setting [12]), 18.7 min. Besides, the “Rates of hydrolysis” value in series [4] (pH 7.4, 37°C) is on record as 37.0 ± 0.3 x 10^-3 min^-1.
Consider `CCOC(=O)C(C(=O)OC1CC2CCC(C1)[N+]2(C)C)c1ccccc1` (racemic) [Compound 5, Ethyl (±)-α-(carboxy)-8-methyl-8-azabicyclo[3·2·1]oct-3-yl benzeneacetate methiodide], for which the Kb in series [1] (setting [7]) was 13.8 nM; in series [1] (setting [14]), 14.1 nM. Besides, the “observed first order hydrolytic rate constants (K) ± S.E.M.” value in series [3] (human plasma at 37°C, compound 2 average of 4 runs, the rest 3 runs) was 14.1 ± 0.6 x 10^-5 min^-1. For the same compound, the half-life in series [3] (human plasma at 37°C) is 82.2 h; in series [2] (setting [9]), 0.85 min; in series [2] (setting [10]), 0.85 min. Moreover, the “Rates of hydrolysis” value in series [4] (pH 7.4, 37°C) is 10.5 ± 0.28 x 10^-2 min^-1. The half-life at 6000 µM in series [4] (setting [11]) and in series [4] (setting [12]) was 6.6 min each time.
With `C[N+]1(C)C2CCC1CC(OC(=O)C(C(=O)OC1CCCCC1)c1ccccc1)C2` (racemic) [Compound 6, Cyclohexyl (±)-α-(carboxy)-8-methyl-8-azabicyclo-[3·2·1]oct-3-yl benzeneacetate methiodide], in series [1] (setting [7]), the Kb was 44.7 nM. In addition, in series [3], the “kobsd HUMAN PLASMA, 37°C” value is on record as 6.31 ± 0.8 x 10^-5 min^-1. Moreover, the “observed first order hydrolytic rate constants (K) ± S.E.M.” value in series [3] is 6.31 ± 0.8 x 10^-5 min^-1. Moreover, the half-life in series [3] (human plasma at 37°C) was 183 h; in series [2] (setting [13]) it was 1.28 min; in series [2] (setting [10]), 1.28 min; in series [4] (setting [11]), 66.8 min; in series [4] (setting [12]), 66.8 min. Besides, the “Rates of hydrolysis” value in series [4] (pH 7.4, 37°C) is recorded as 10.4 ± 0.23 x 10^-3 min^-1.
Consider `CN1C2CCC1CC(OC(=O)C(C(=O)O)c1ccccc1)C2` (racemic) [Compound 7, (±)-α-(carboxy)-8-methyl-8-azabicyclo-[3·2·1]oct-3-yl benzeneacetic acid], for which the Kb in series [1] (setting [7]) is 631 nM. In addition, the half-life amounted to 331 ± 4.31 min in series [6], 350 min in series [2] (setting [13]) and 350 min in series [2] (setting [10]).
In the case of `CC(C)OC(=O)C(C(=O)OC1CC2CCC(C1)[N+]2(C)C)c1ccccc1` (racemic) [VIc, isopropyl (±)-α-(carboxy)-8-methyl-8-azabicyclo[3·2·1]oct-3-yl-benzeneacetate methiodide], in series [1] (setting [14]), the Kb was 24.5 nM.
For `CN1[C@@H]2CC[C@H]1C[C@@H](OC(=O)C(CO)c1ccccc1)C2` (some centres unmarked) [Atropine, reference compound], in series [1], the PA2 was 8.29 and the “PA2 TERTIARY AMINE” value turned out to be 8.29.
